Reference: patent US12285431B2, “Treatment of Rb-negative tumors using topoisomerase inhibitors in combination with cyclin dependent kinase 4/6 inhibitors” (G1 Therapeutics, Inc., priority 2014, dated 2025)
“Also recorded” adds a separate entry of the source. One block for each compound: values may come before it.

Key:
[1] = system: MCF7 (breast adenocarcinoma, Rb-positive); assay: Cellular proliferation assay (CellTiter-Glo), MCF7; format: cell-based; conditions: Homo sapiens, MCF7, 144 h, cell viability after six days
Method: (§1) Further cellular proliferation assays were conducted using the following cancer cell lines: MCF7 (breast adenocarcinoma—Rb-positive), ZR-75-1 (breast ductal carcinoma—Rb-positive), H69 (human small cell lung cancer—Rb-negative) cells, or A2058 (human metastatic melanoma cells—Rb-negative). These cells were seeded in Costar (Tewksbury, Massachusetts) 3093 96 well tissue culture treated white walled/clear bottom plates. Cells were treated with the compounds of Table 1 as nine point dose response dilution series from 10 uM to 1 nM. Cells were exposed to compounds and then cell viability was determined after either four (H69) or six (MCF7, ZR75-1, A2058) days as indicated using the CellTiter-Glo® luminescent cell viability assay (CTG; Promega, Madison, Wisconsin, United States of America) following the manufacturer's recommendations. Plates were read on BioTek (Winooski, Vermont) Syngergy2 multi-mode plate reader. The Relative Light Units (RLU) were plotted as a result of variable molar concentration and data was analyzed using Graphpad (LaJolla, California) Prism 5 statistical software to determine the EC50 for each compound.

[2] = system: A2058 (human metastatic melanoma cells, Rb-negative); assay: Cellular proliferation assay (CellTiter-Glo), A2058; format: cell-based; conditions: A2058, 144 h, cell viability after six days
Method: as §1

[3] = system: H69 (human small cell lung cancer, Rb-negative) cells; assay: Cellular proliferation assay (CellTiter-Glo), H69; format: cell-based; conditions: NCI-H69, 96 h, cell viability after four days
Method: as §1

CDK6/CycD3 = CDK6/CycD3 (Homo sapiens, UniProt Q00534); assay: CDK6/CycD3 kinase assay; conditions: read-out: CDK6/CycD3 IC50; Table 3
[4] = Mouse pharmacokinetics (oral gavage / intravenous); format: in vivo, mice; conditions: for AUC 0-inf (uM * h) i.v.: 10 mg/kg intravenous injection; for AUC (uM * h) p.o. / Cmax / Tmax (h) p.o. / t1/2 (h) p.o.: 30 mg/kg oral gavage; for t1/2 (h) p.o.: 30 mg/kg
[5] = system: ZR-75-1 (breast ductal carcinoma, Rb-positive); assay: Cellular proliferation assay (CellTiter-Glo), ZR-75-1; format: cell-based; conditions: Homo sapiens, ZR-75-1, 144 h, cell viability after six days, read-out: ZR75-1 Cellular EC50
Method: as §1

HS68 cells = assay: G1 arrest (cellular G1 and S-phase) assay, propidium iodide flow cytometry; format: cell-based, human
Method: HS68 cells (human skin fibroblast cell line (Rb-positive)) were stained with propidium iodide staining solution and run on Dako Cyan Flow Cytometer. The fraction of cells in G0-G1 DNA cell cycle versus the fraction in S-phase DNA cell cycle was determined using FlowJo 7.2.2 analysis.
The compounds listed in Table 1 were tested for their ability to arrest HS68 cells at the G1 phase of the cell cycle.

[6] = system: Rb phosphorylation (Ser780, Ser807/811) in A2058 cells; assay: Rb phosphorylation western blot, A2058; format: cell-based; conditions: A2058, 300 nM, 4, 8, 16 and 24 hours
Method: (§2) The CDK4/6-cyclin D complex is essential for progression from G1 to the S-phase of the DNA cell cycle. This complex phosphorylates the retinoblastoma tumor suppressor protein (Rb). […] Samples were lysed and protein was assayed by western blot analysis. Rb phosphorylation was measured at two sites targeted by the CDK4/6-cyclin D complex, Ser780 and Ser807/811 using species specific antibodies.

[7] = system: 456 (395 non-mutant) kinases; assay: DiscoveRx KINOMEscan profiling; format: binding; conditions: single concentration 1000 nM
[8] = system: tHS68 cells (Rb-positive); assay: Cell cycle arrest screen, tHS68; format: cell-based
Source text: (§3) To test the ability of the disclosed CDK4/6 inhibitors to induce a clean G1-arrest, a cell based screening method was used consisting of two Rb-positive (tHS68 and WM2664) and one Rb-negative (A2058) cell line. […] At the conclusion of the experiment, cells were harvested, fixed, and stained with propidium iodide (a DNA intercalator), which fluoresces strongly red (emission maximum 637 nm) when excited by 488 nm light. Samples were run on Dako Cyan flow cytometer and >10,000 events were collected for each sample. Data were analyzed using FlowJo 2.2 software developed by TreeStar, Inc.

[9] = system: NCI-H69 SCLC xenograft (Rb-negative); format: in vivo
Source text: An Rb-negative model of small cell lung cancer was used in the following example. Briefly, xenografts of National Cancer Institute (NCI) […] cells were grafted onto the mice (Athymic Nude (Crl:NU(NCr)-Foxn1^nu); 6-12 week old females) using the South Texas Accelerated Research Therapeutics (START) Cell-Based Xenograft (START-CBX) tumor model. H69 cells are human small cell lung cancer cells and are Rb-negative.
Data collected from the efficacy study included animal weights, observations and tumor dimensions. This information was used to determine agent tolerability based on weight change and gross physiologic changes and anticancer activity based on tumor growth delay or regression. The designated endpoint for this study was an individual tumor volume of 1 cm^3 or 60 days following treatment initiation.
Tumor fragments from NCI-H69 were harvested from host animals and implanted into immune-deficient mice and the study initiated at a mean tumor volume of approximately 150-250 mm^3.
Additional details of the study are outlined in Table 6 below. […] Tumor size was examined twice per week and the endpoint for this study was Day 59.

[10] = system: Rb phosphorylation (Ser780, Ser807/811) in tHS68 cells; assay: Rb phosphorylation western blot, tHS68; format: cell-based; conditions: tHS68, 300 nM, 4, 8, 16 and 24 hours
Method: as §2

[11] = system: WM2664 cells (Rb-positive); assay: Cell cycle arrest screen, WM2664; format: cell-based; conditions: 24 hours
Source text: as §3

[12] = system: A2058 cells (Rb-negative); assay: Cell cycle arrest screen, A2058; format: cell-based; conditions: 24 hours
Source text: as §3

[13] = system: Rb phosphorylation (Ser780, Ser807/811) in WM2664 cells; assay: Rb phosphorylation western blot, WM2664; format: cell-based; conditions: WM2664, 300 nM, 4, 8, 16 and 24 hours
Method: as §2

[14] = system: NCI-H69 SCLC xenograft (Rb-negative); assay: NCI-H69 SCLC xenograft model, Example 156; format: in vivo, mice; conditions: Compound T 100 mg/kg po qd×5×4; carboplatin 40 mg/kg and etoposide 4 mg/kg ip twice per week for 3 weeks; topotecan 0.6 mg/kg ip once daily for 5 days; FIG. 11
CDK2/CyclinE = CDK2/CyclinE (Homo sapiens, UniProt P24941); assay: CDK2/cyclinE kinase assay (Nanosyn, Caliper); format: biochemical; conditions: Table 2
CDK4/CyclinD1 = CDK4/CyclinD1 (Homo sapiens, UniProt P11802); assay: CDK4/cyclinD1 kinase assay (Nanosyn, Caliper microfluidic kinase detection); format: biochemical; conditions: read-out: CDK4/CycD1 IC50
Method: The assays were performed using microfluidic kinase detection technology (Caliper Assay Platform). The compounds were tested in 12-point dose-response format in singlicate at Km for ATP. Phosphoacceptor substrate peptide concentration used was 1 μM for all assays and Staurosporine was used as the reference compound for all assays. Specifics of each assay are as described below:
CDK4/CyclinD1: Enzyme concentration: 1 nM; ATP concentration: 200 μM; Incubation time: 10 hr.

[15] = Group 2: Compound T 100 mg/kg PO qdx5x4 and topotecan vehicle

CDK4/CyclinD1, sequence (P11802 whole entry, species assumed): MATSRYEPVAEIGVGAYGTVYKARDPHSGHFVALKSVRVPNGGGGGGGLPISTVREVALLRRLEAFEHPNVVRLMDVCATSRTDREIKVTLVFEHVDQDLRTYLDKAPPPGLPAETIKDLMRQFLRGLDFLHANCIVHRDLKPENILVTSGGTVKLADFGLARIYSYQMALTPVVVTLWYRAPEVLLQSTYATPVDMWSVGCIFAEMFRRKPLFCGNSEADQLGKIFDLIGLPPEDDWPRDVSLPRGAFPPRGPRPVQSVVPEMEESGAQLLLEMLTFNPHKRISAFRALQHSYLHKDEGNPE
CDK4/CyclinD1, sequence (P24385 whole entry partner, species assumed): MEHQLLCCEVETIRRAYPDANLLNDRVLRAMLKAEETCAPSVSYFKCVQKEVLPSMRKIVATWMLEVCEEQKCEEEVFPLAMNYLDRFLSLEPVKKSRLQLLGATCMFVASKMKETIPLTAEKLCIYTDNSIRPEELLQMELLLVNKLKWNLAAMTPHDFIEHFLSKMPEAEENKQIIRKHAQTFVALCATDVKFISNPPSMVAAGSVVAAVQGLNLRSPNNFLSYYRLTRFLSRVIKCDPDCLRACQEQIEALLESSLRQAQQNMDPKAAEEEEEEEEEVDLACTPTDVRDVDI
CDK6/CycD3, sequence (Q00534 whole entry, species assumed): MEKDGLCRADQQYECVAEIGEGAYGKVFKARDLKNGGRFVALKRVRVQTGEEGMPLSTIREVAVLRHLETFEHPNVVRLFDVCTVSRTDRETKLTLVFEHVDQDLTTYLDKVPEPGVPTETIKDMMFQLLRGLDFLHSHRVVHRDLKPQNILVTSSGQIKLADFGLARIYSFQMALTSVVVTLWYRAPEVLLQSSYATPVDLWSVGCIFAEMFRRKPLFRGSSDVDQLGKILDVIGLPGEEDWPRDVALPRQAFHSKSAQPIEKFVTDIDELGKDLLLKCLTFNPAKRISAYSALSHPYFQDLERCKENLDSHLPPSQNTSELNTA
CDK6/CycD3, sequence (P30281 whole entry partner, species assumed): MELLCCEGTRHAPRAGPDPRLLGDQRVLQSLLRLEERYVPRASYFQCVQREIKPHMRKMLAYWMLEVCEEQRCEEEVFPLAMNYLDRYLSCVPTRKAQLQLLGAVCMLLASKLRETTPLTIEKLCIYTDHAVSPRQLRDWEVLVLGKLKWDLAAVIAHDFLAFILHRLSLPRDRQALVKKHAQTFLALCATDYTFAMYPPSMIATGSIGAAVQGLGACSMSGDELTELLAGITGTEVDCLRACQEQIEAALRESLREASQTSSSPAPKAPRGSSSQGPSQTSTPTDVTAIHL

Compound: CC(C)N1CCN(c2ccc(Nc3ncc4cc5n(c4n3)C3(CCCCC3)CNC5=O)nc2)CC1 [Compound GG]
EC50 [1]: 52 nM | EC50 [2]: 2690 nM | EC50 [3]: 2920 nM | IC50 (CDK6/CycD3): 4.7 nM | AUC 0-inf (uM * h) i.v. [4]: 1.1 µM·h | AUC (uM * h) p.o. [4]: 1.9 µM·h | Cmax [4]: 1.9 µM | Tmax (h) p.o. [4]: 1 h | t1/2 (h) p.o. [4]: 3.5 h | EC50 [5]: 62 nM | EC50 (HS68 cells; Homo sapiens, Hs68, HS68 cells): 80 nM

Compound: CN1CCN(c2ccc(Nc3ncc4cc5n(c4n3)C3(CCCCC3)CNC5=O)nc2)CC1 [Compound T]
EC50 [1]: 49 nM | EC50 [2]: > 3000 nM | Rb phosphorylation at Ser780 and Ser807/811 (in words) [6]: but not in the Rb-negative cell line (A2058) | EC50 [3]: > 3000 nM | number of 395 non-mutant kinases inhibited, inhibitory threshold 65% [7]: 92 | number of 395 non-mutant kinases inhibited, inhibitory threshold 90% [7]: 31 | number of 395 non-mutant kinases inhibited, inhibitory threshold 99% [7]: 6 | share of 395 non-mutant kinases inhibited, inhibitory threshold 65% [7]: 23.3% | share of 395 non-mutant kinases inhibited, inhibitory threshold 90% [7]: 7.8% | share of 395 non-mutant kinases inhibited, inhibitory threshold 99% [7]: 1.5% | cell cycle distribution at 300 nM (in words) ([8]; 300 nM, 24 hours): loss of the S-phase peak | EC50 ([8]; 24 hours treatment, read-out: G1 cell cycle arrest EC50): 80 nM | S-phase fraction at the highest concentration shown ([8]; 24 hours, 28% at baseline): 6% | cell cycle distribution, increasing concentrations (in words) ([8]; 24 hours, FIG. 9A): robust G1 cell cycle arrest; also recorded: clean G1 arrest accompanied by a corresponding decrease in the number of cells in S-phase | activity toward NCI-H69 xenografts / tumor volume (in words) ([9]; Compound T alone 100 mg/kg, topotecan 0.6 mg/kg, combination with each Compound T dose (100, 50 or 10 mg/kg), FIG. 16): inactive | tolerability: weight loss or toxicity (in words) ([9]; Compound T alone or thirty minutes before topotecan, FIG. 13): well tolerated with no additive weight loss or toxicity | CR (tumor volume < 15 mm^3) [9, 15]: 0 | LTS (individual tumor volume < volume endpoint at study time endpoint) [9, 15]: 0 | MTTE ± SD (timepoint in days to reach designated tumor volume or time endpoint) [9, 15]: 14 ± 4 days | PR (%) (tumor volume ≥ 50% regression versus Day 0) [9, 15]: 0% | T-C (difference in days between MTTE of treatment and control groups) [9, 15]: <0 days | TFS (complete responder at study endpoint) [9, 15]: 0 | Rb phosphorylation at Ser780 and Ser807/811 (in words) [10]: blocks Rb phosphorylation in Rb-positive cell lines by 16 hours post exposure; also recorded: reduced Rb-phosphorylation starting 16 hours after treatment | cell cycle distribution at 300 nM (in words) [11]: loss of the S-phase peak | AUC 0-inf (uM * h) i.v. [4]: 1.3 µM·h | AUC (uM * h) p.o. [4]: 2.9 µM·h | Cmax [4]: 2.5 µM | Tmax (h) p.o. [4]: 1 h | t1/2 (h) p.o. [4]: 5 h | cell cycle distribution at 300 nM (in words) [12]: does not cause a loss of the S-phase peak | Rb phosphorylation at Ser780 and Ser807/811 (in words) [13]: blocks Rb phosphorylation in Rb-positive cell lines by 16 hours post exposure; also recorded: reduced Rb-phosphorylation starting 16 hours after treatment | effect on tumor growth / tumor size (in words) [14]: very little effect of slowing tumor growth | EC50 [5]: 36 nM | EC50 (HS68 cells; Homo sapiens, Hs68, HS68 cells): 100 nM

Fold Selectivity (CDK2/CycE/CDK4) (CDK2/CyclinE): 542 | IC50 (CDK2/CyclinE; ATP 100 μM, 1 hr, read-out: CDK2/CycE IC50): 3960 nM | IC50 (CDK4/CyclinD1): 7.3 nM | EC50 (HS68 cells; HS68 cells): 300 nM
Compound: CCN(CC)C1CCN(c2ccc(Nc3ncc4cc5n(c4n3)C3(CCCCC3)CNC5=O)nc2)C1 (stereo not shown) [UU]
